Measured values: patent publication US12208227B2, “Precision bio-chemotronic system” (THE REGENTS OF THE UNIVERSITY OF MICHIGAN, priority 2017, dated 2025)
In brackets after ≈: the same amount, converted by molar mass. One block for each compound: values may come before it.

Columns and labels:
[1] = Dissolution of printed films versus original loose powders; format: physicochemical
From the text: (§2) Drug dissolution was monitored by in-situ UV-VIS Ocean Optics USB+2000 spectrometer with T300-UV-VIS transmission dip probe, with a 10 mm optical path.
(§3) For dissolution from film, the glass substrate with printed film was attached to rotating rod with substrate holder. In case of compressed powder pellet, 1.57 mm diameter pellet was compressed at 50±2 psi for approximately 10 seconds into a holder having same size as disk substrate holder. […] In all cases the same vessel and solution volume of 10 ml was used. Testing temperature was room temperature−20±1° C. Sink conditions were defined as C<5Cs.
As-received API powders having the same weight as the films were introduced into 10 ml solutions without any prior treatment, and stirred using a rotation rod with the same shape and diameter as the one used for film dissolution.

physchem = settings: 20 °C, pH 1.2, simulated gastric fluid, thermodynamic from solid
Method: Solubility tests were performed at ambient temperature (20±1° C.). Solutions with excess concentration (at least 100 μg/ml of solid) were shaken at approximately 1,000 rpm for 48 hours, followed by solution filtration with 0.4 μm filter after 24 hrs. Filtered solutions concentrations were then measured using UV-VIS spectrometry, calibrated with known solutions concentrations. Five different concentrations for calibration were used in each test.
Solution volume remained constant in all experiments, 10 ml, and temperature was 20±1° C.

[2] = Intrinsic dissolution rate, rotating disk dissolution apparatus; format: physicochemical; settings: films comparable to compressed pellets, 100 rpm, 10 ml, 20±1° C.
From the text: as §2
Dissolution Rate Measurement
as §3
To measure dissolution kinetics, a rotating disk dissolution apparatus (see FIG. 30 for details) was used with rotational speed of 100 rpm. Concentration was monitored using a UV-VIS spectrometer equipped with a dip probe. The compounds were tested both in powder form (compressed into pellets for rotating disk dissolution) and in film form. […]
[formula] where m is the dissolved solute mass, and (dm/dt)max is the maximum slope in the dissolution curve that plots the amount of dissolved material versus time, typically evaluated at the start of dissolution process, where the concentration driving force is highest. […]

[3] = system: OVCAR3 cells (ovarian carcinoma); assay: Cancer cell growth/viability, live cell counts by trypan blue exclusion; format: cell-based
Method: (§1) The cells were plated onto 12-well tissue culture dishes, and allowed to adhere and grow for 24 hours in 2.5 ml of 10% fetal bovine serum-supplemented growth medium. […] Slides were removed following this initial period, and live cell counts were determined using trypan blue exclusion using a hemocytometer at 1, 4, 8, 12, 24 and 48 hours following film treatment. At least 3 samples were tested at each time point.

[4] = system: MCF7 cells (breast carcinoma); assay: as above; format: cell-based
Method: as §1

[5] = film form, nominal 5 μM (4.5 μg per film)
[6] = powder form in growth medium, nominal 5 μM

Structure (SMILES): Cn1c(=O)c2c(ncn2C)n(C)c1=O [Caffeine]
dissolution in the film form (qualitative) ([1]; film form): instantaneous dissolution

solubility at 48 h (physchem): 22.5 ± 0.5 µg/mL (≈ 109 µM) | enhancement of initial dissolution rate, film-form versus loose powder ([1]; aqueous HCl buffer pH 1.2, 70 μg weight, 10 ml): thirty-fold | intrinsic dissolution rate (IDR) ([2]; aqueous HCl buffer pH 1.2): 1·10^−3±3·10^−4 μg sec^−1 mm^−2
Structure (SMILES): CC(C)Cc1ccc(C(C)C(=O)O)cc1 (stereo not drawn) [ibuprofen]

intrinsic dissolution rate (IDR) ([2]; aqueous acetate buffer pH 4.9): 6.10^−4±1·10^−4 μg sec^−1 mm^−2
Structure (SMILES): CC/C(=C(\c1ccccc1)c1ccc(OCCN(C)C)cc1)c1ccccc1 [tamoxifen]
cancer cells' viability after 48 hours [3, 5]: 44% | cancer cells' viability after 48 hours [3, 6]: 68% | cancer cells' viability after 48 hours [4, 5]: 58% | cancer cells' viability after 48 hours [4, 6]: 79%
